Tested on: non-transgenic maize seed from inbred N46
Assay: Priming matrix additive: Dormex + DMSO
Format: in vivo
Conditions: 1% DMSO without Dormex, 3 hours
Method: Non-transgenic maize seed from inbred N46 were primed with 0, 5, 10, 15, or 30% Dormex® solutions with and without 1% DMSO. For each treatment, 96 seeds were soaked in 50 ml of Dormex® solution in a petri dish for 3 hours at room temperature. After priming the seeds were transferred into pollination bags, and dried overnight in front of a fan. Dried primed seed were then planted into flats to germinate.

With `C[S+](C)[O-]` [DMSO] the Germination % was 93%.

Source: patent publication US20100154083A1, “Methods and Compositions for the Selection of A Transgenic Plant” (Pioneer Hi-Bred International, Inc., priority 2006, published 2010)
